Literature values as cited in US6727243B1, “Compositions comprising cefuroxime axetil” (Biochemie Gesellschaft m.b.H., priority 1998, dated 2004).

Settings: oral administration; after consumption of food versus fastened state

Structure (SMILES): CO/N=C(\C(=O)N[C@@H]1C(=O)N2C(C(=O)OC(C)OC(C)=O)=C(COC(N)=O)CS[C@H]12)c1ccco1 (stereo partly shown) [cefuroxime axetil, 1-acetoxyethyl ester of cefuroxime]
- food effect on bioavailability: exhibit a food effect
